This passage reports IC50 results from US20260042764A1, “COMPOSITIONS AND METHODS FOR INHIBITION OF KRAS” (TheRas, Inc., priority 2022, published 2026).

For test [1], the system named is H1573 cells (KRAS G12A). Nature of the test: Cell-based pERK HTRF assay in H1573 cells (Biological Example 5). The conditions noted are these: Homo sapiens, NCI-H1573. As for the experimental part: (§1) Biological Example 5: Cell-based PERK HTRF assay in AsPC-1, SW1900, HPAC, Capan-2, RKN, H358, HCT116, KP-2, H1573, A549, MKN1, and HT1080 cells
(§2) The inhibition of ERK phosphorylation, as measured using the HTRF Advanced Phospho-ERK 1/2 (Thr202/Tyr204) Detection Assay kit (Perkin Elmer), was used to determine the effectiveness of test compounds in disrupting KRAS-driven protein/effector signaling in cells.
(§3) On day 1, cells were seeded into 96-well plates at 2.5×10^4 cells/well in 100 μL of complete growth media supplemented with 10% fetal bovine serum (FBS) and incubated at 37° C., in the presence of 5% CO2.
(§4) On day 2, cells were treated with compounds diluted in DMSO at 0.25% final DMSO concentration. Compounds were dosed in a 9-point concentration curve with three-fold dilution between concentrations. Cells were incubated in the presence of compound for two hours at 37° C. Following this treatment period, cells were harvested by aspirating the media, adding 40 μL of kit-supplied 1x lysis buffer per well, and shaking for 30 minutes at 250 rpm at room temperature.
(§5) Following cell lysis, samples were homogenized by pipetting up and down twenty times and 16 μL of cell lysate per well was transferred from the 96-well cell culture plate to two wells of a 384-well detection plate. A complete detection buffer was prepared by diluting D2 and Eu Cryptate antibodies 1:20 in kit-provided detection solution, 4 μL of complete detection buffer was then added to each well with lysate. Plates were incubated with gentle rocking for 24 hours at 4° C.
(§6) Following this incubation period, plates were centrifuged at 500×g for one minute and analyzed on a CLARIOstar plate reader. Data was imported into Microsoft Excel and the signal from the 665 nm channel was divided by the signal from the 620 nm channel. % pERK was calculated as: […]
(§7) Data was imported to the Prism software package (Graphpad) and EC50 values were calculated using the log (inhibitor) vs, response—variable slopc (Four parameters) model.
For orientation: TR-FRET usually uses a lanthanide donor and a delayed reading to cut background.

Test [2] relates to SW1900 cells (KRAS G12D). As to the kind of experiment: 3D Cell viability assay in SW1900 cells (Biological Example 6). Format: cell-based. The conditions noted are these: Homo sapiens; SW1990 (text: SW1900, KRAS G12D) spheroids, 72 hours. The method, boiled down: (§8)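 EC50 values come from a four-parameter variable-slope fit of CellTiter-Glo 3D luminescence in spheroid cultures treated 72 h with a nine-point, three-fold dilution series.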

Test [3] concerns Capan-2 cells (KRAS G12V). As to the kind of experiment: Cell-based pERK HTRF assay in Capan-2 cells (Biological Example 5). The conditions noted are these: Homo sapiens, Capan-2, Capan-2 (KRAS G12V) cells. An outline of the steps:
(§9)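 pERK1/2 (Thr202/Tyr204) HTRF read-out, 665/620 nm ratio, after lysis and 24 h antibody incubation at 4 °C; EC50 by variable-slope four-parameter model. Compounds applied for 2 h at 37 °C as 9 three-fold dilutions, 0.25% DMSO, to cells plated the day before in 10% FBS medium.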

Test [4] relates to A549 cells (KRAS G12S). Nature of the test: 3D Cell viability assay in A549 cells (Biological Example 6). The conditions noted are these: Homo sapiens; A549 (KRAS G12S) spheroids, 72 hours. Format: cell-based. The method, boiled down:
as §8

Test [5] deals with HCT116 cells (KRAS G13D). Nature of the test: 3D Cell viability assay in HCT116 cells (Biological Example 6). Format: cell-based. Particulars: Homo sapiens, HCT-116; HCT116 (KRAS G13D) spheroids, 72 hours. An outline of the steps: as §8
Test [6] has as its system Capan-2 cells (KRAS G12V). Nature of the test: 3D Cell viability assay in Capan-2 cells (Biological Example 6). Particulars: Homo sapiens; Capan-2 (KRAS G12V) spheroids, 72 hours. The test is classed as cell-based. An outline of the steps: as §8
Test [7] deals with KP-2 cells (KRAS G12R). Nature of the test: 3D Cell viability assay in KP-2 cells (Biological Example 6). Format: cell-based. Particulars: KP-2 (KRAS G12R) spheroids, 72 hours. As for the experimental part: Biological Example 6: 3D Cell viability assay in AsPC-1, SW1900, HPAC, Capan-2, RKN, H358, HCT116, KP-2, H1573, A549, MKN1, and HT1080 cells
The inhibition of cellular viability as a result of test compound treatment in a spheroid assay was measured using the CellTiter-Glow 3D Cell Viability Assay (Promega).
On Day 1, 1000 cells per well were seeded in 150 μL of complete growth media supplemented with 10% fetal bovine serum (FBS) and incubated at 37° C., in the presence of 5% CO2 in 96-well ultra-low attachment microplates (Corning) for 48 hours undisturbed to allow spheroids to form.
Following spheroid formation, cells were treated with compounds diluted in DMSO at 0.25% final DMSO concentration. Compounds were dosed in a 9-point concentration curve with three-fold dilution between concentrations. Cells were incubated in the presence of compound for 72 hours at 37° C., in the presence of 5% CO2.
Following this incubation period, the kit-provided CTG reagent was allowed to equilibrate for 30 minutes at room temperature, 150 μL of equilibrated CTG reagent was added to each well, and the plate was sealed before shaking at 250 rpm for 10 minutes at room temperature to lyse the cells, 150 μL of lysate per well was transferred to a 96-well plate and luminescence was read on a CLARIOstar plate reader.
Data was imported into the Prism software package (Graphpad) and EC50 values were calculated using the log (inhibitor) vs, response—variable slope (Four parameters) model.

Test [8] has as its system HCT116 cells (KRAS G13D). Nature of the test: Cell-based pERK HTRF assay in HCT116 cells (Biological Example 5). Particulars: Homo sapiens, HCT-116. As for the experimental part:
as §1, §2, §3, §4, §5, §6, §7

Test [9] has as its system SW1900 cells (KRAS G12D). As to the kind of experiment: Cell-based pERK HTRF assay in SW1900 cells (Biological Example 5). Particulars: Homo sapiens, SW1990, SW1990 cells (text: SW1900, KRAS G12D). The method, boiled down: as §9
Test [10] relates to H1573 cells (KRAS G12A). Nature of the test: 3D Cell viability assay in H1573 cells (Biological Example 6). Format: cell-based. Particulars: Homo sapiens, NCI-H1573; H1573 (KRAS G12A) spheroids, 72 hours. The method, boiled down:
as §8

Test [11] has as its system KP-2 cells (KRAS G12R). Nature of the test: Cell-based pERK HTRF assay in KP-2 cells (Biological Example 5). The conditions noted are these: KP-2 (KRAS G12R) cells. As for the experimental part: as §1, §2, §3, §4, §5, §6, §7
Test [12] relates to MKN1 cells (KRAS amplification). Nature of the test: 3D Cell viability assay in MKN1 cells (Biological Example 6). Format: cell-based. The conditions noted are these: Homo sapiens, MKN-1; MKN (MKN1, KRAS amplification) spheroids, 72 hours. An outline of the steps: as §8
A further test deals with AsPC-1 cells (KRAS G12D). As to the kind of experiment: Cell-based pERK HTRF assay in AsPC-1 cells (Biological Example 5). Particulars: Homo sapiens, ASPC1, AsPC-1 (KRAS G12D) cells. As for the experimental part: as §1, §2, §3, §4, §5, §6, §7
The test system of another test is H358 cells (KRAS G12C). Nature of the test: 3D Cell viability assay in H358 cells (Biological Example 6). Format: cell-based. The conditions noted are these: Homo sapiens, NCI-H358; H358 (KRAS G12C) spheroids, 72 hours. The method, boiled down: as §8
The subject of test [13] is HT1080 cells (NRAS). As to the kind of experiment: 3D Cell viability assay in HT1080 cells (Biological Example 6). The test is classed as cell-based. The conditions noted are these: Homo sapiens, HT-1080; HT1080 (NRAS) spheroids, 72 hours. The method, boiled down: as §8
Test [14] deals with A549 cells (KRAS G12S). Nature of the test: Cell-based pERK HTRF assay in A549 cells (Biological Example 5). The conditions noted are these: Homo sapiens. As for the experimental part:
as §1, §2, §3, §4, §5, §6, §7

The test system of test [15] is HT1080 cells (NRAS). As to the kind of experiment: Cell-based pERK HTRF assay in HT1080 cells (Biological Example 5). The conditions noted are these: Homo sapiens, HT-1080. The method, boiled down:
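Inhibition of ERK phosphorylation is measured after cells grown in 10% FBS medium receive test compound for two hours at 37° C across nine threefold-spaced concentrations. Lysates are incubated with HTRF antibody pair for 24 h at 4° C, and EC50 is derived from the 665/620 nm signal ratio.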

A further test concerns RKN cells (KRAS G12V). As to the kind of experiment: 3D Cell viability assay in RKN cells (Biological Example 6). The test is classed as cell-based. Particulars: RKN (KRAS G12V) spheroids, 72 hours. An outline of the steps:
as §8

As usually defined, the IC50 is the concentration at which inhibition is half-maximal. Low readings indicate greater potency, high ones weaker potency. For `CCC(=O)N1C[C@@H](N(CC)c2nc(OC[C@@]34CCCN3C[C@H](F)C4)nc3c(F)c(-c4ccc(F)c5sc(N)c(C#N)c45)c(C(F)(F)F)cc23)C[C@H]1C` [Compound 442], the IC50 in the test with H1573 cells (KRAS G12A) [1] was 100 to 1000 nM; with SW1900 cells (KRAS G12D) [2] it was not above 100 nM; in test [3], not above 100 nM; with A549 cells (KRAS G12S) [4], 100 to 1000 nM; in the test on HCT116 cells (KRAS G13D) [5], 100 to 1000 nM; in test [6] it was not above 100 nM. The concentration for half-maximal inhibition (IC50) in the test on KP-2 cells (KRAS G12R) [7] is 100 to 1000 nM; in the test with HCT116 cells (KRAS G13D) [8], not above 100 nM; in the test with SW1900 cells (KRAS G12D) [9], not above 100 nM; with H1573 cells (KRAS G12A) [10] it was 100 to 1000 nM; with KP-2 cells (KRAS G12R) [11], 100 to 1000 nM; in [12], not above 100 nM. For the same compound, the IC50 in the test with AsPC-1 cells (KRAS G12D) is 100 to 1000 nM; in the test with H358 cells (KRAS G12C) it was not above 100 nM; with HT1080 cells (NRAS) [13], more than 1000 nM; in the test with A549 cells (KRAS G12S) [14], 100 to 1000 nM; in the test with HT1080 cells (NRAS) [15] it was more than 1000 nM; in the test on RKN cells (KRAS G12V), not above 100 nM.

Regarding `CCN(c1nc(OC[C@@]23CCCN2C[C@H](F)C3)nc2c(F)c(-c3ccc(F)c4sc(N)c(C#N)c34)c(C(F)(F)F)cc12)[C@@H]1CCN(C(C)=O)C1` [Compound 268], the IC50 in the test with H1573 cells (KRAS G12A) [1] is not above 100 nM; in the test on SW1900 cells (KRAS G12D) [2], not above 100 nM; in test [3], not above 100 nM; in the test on A549 cells (KRAS G12S) [4], not above 100 nM; in the test with HCT116 cells (KRAS G13D) [5], 100 to 1000 nM; in test [6], not above 100 nM. Also, the IC50 was 100 to 1000 nM in the test with KP-2 cells (KRAS G12R) [7]; not above 100 nM in the test with HCT116 cells (KRAS G13D) [8]; not above 100 nM in the test with SW1900 cells (KRAS G12D) [9]; not above 100 nM in the test with H1573 cells (KRAS G12A) [10]; 100 to 1000 nM in the test with KP-2 cells (KRAS G12R) [11]; not above 100 nM in test [12]. The IC50 with AsPC-1 cells (KRAS G12D) is 100 to 1000 nM; with H358 cells (KRAS G12C), not above 100 nM; in the test with HT1080 cells (NRAS) [13] it was more than 1000 nM; in the test on A549 cells (KRAS G12S) [14], not above 100 nM; in the test on HT1080 cells (NRAS) [15] it was more than 1000 nM; in the test with RKN cells (KRAS G12V), not above 100 nM.

Turning to `N#Cc1cnn2c1CN(c1nc(OC[C@@]34CCCN3C[C@H](F)C4)nc3c(F)c(-c4ccc(F)c5sc(N)c(C#N)c45)c(C(F)(F)F)cc13)CC2` [Compound 392], the IC50 in the test with H1573 cells (KRAS G12A) [1] is 100 to 1000 nM; in the test on SW1900 cells (KRAS G12D) [2] it was not above 100 nM; in test [3], 100 to 1000 nM; with A549 cells (KRAS G12S) [4], 100 to 1000 nM; in the test on HCT116 cells (KRAS G13D) [5] it was 100 to 1000 nM; in test [6], 100 to 1000 nM. In addition, the IC50 in the test on KP-2 cells (KRAS G12R) [7] is 100 to 1000 nM; in the test with HCT116 cells (KRAS G13D) [8], not above 100 nM; with SW1900 cells (KRAS G12D) [9] it was not above 100 nM; with H1573 cells (KRAS G12A) [10], 100 to 1000 nM; in the test with KP-2 cells (KRAS G12R) [11], 100 to 1000 nM; in test [12], not above 100 nM. For the same compound, the IC50 is more than 1000 nM in the test with AsPC-1 cells (KRAS G12D); not above 100 nM with H358 cells (KRAS G12C); more than 1000 nM in the test with HT1080 cells (NRAS) [13]; 100 to 1000 nM in the test on A549 cells (KRAS G12S) [14]; more than 1000 nM with HT1080 cells (NRAS) [15]; not above 100 nM in the test with RKN cells (KRAS G12V).
